Holding throughout (type): biochemical
Experiment [1] deals with T1, GBA2 (Homo sapiens (Human), UniProt Q9HCG7). The experiment can be described thus: Binding specificity for GBA2 over other molecules, Ki or IC50 ratio. From the text:
In some embodiments, one or more of the compounds according to the invention may specifically bind a GBA2. In alternative embodiments, one or more of the compounds according to the invention may specifically bind the active site of a GBA2. […] In alternative embodiments, one or more of the compounds according to the invention may specifically bind the human non-lysosomal glucosylceramidase (GBA2) over the human lysosomal glucosylceramidase (GCase) and/or the human cytosolic glucosylceramidase (GBA3). In alternative embodiments, one or more of the compounds according to the invention may specifically bind the human non-lysosomal glucosylceramidase (GBA2) over the human glucosylceramide synthase (GCS). In alternative embodiments, one or more of the compounds according to the invention may specifically bind the human non-lysosomal glucosylceramidase (GBA2) over an intestinal alpha-glucosidase, where the intestinal alpha-glucosidase may be a sucrase-isomaltase or a maltase-glucoamylase.

For experiment [2], the system named is rat intestinal alpha-glucosidases. The experiment can be described thus: Inhibition of rat intestinal alpha-glucosidases (rat intestinal lysate, glucose detection). Conditions: compound concentration 25 μM, sucrose as substrate. The method, then: Assay for Determination of Inhibition of Rat Intestinal Alpha-Glucosidases
Various concentrations of test compounds were prepared in DMSO and then diluted into buffer consisting of 100 mM citric acid, 200 mM disodium phosphate, pH 6.0. Rat intestinal acetone powder (Sigma) was dissolved to 12.5 mg/mL in assay buffer and sonicated in an ice bath, centrifuged, and the supernatant was collected, aliquoted and stored at −20° C. until use. On the day of the assay, the rat intestinal lysate was diluted to 6.25 mg/mL (sucrose reactions) and 2.1 mg/ml (maltose reactions) in assay buffer. The final reaction solutions for sucrose contained 2.1 mg/mL rat intestinal lysate, 40 mM sucrose, 50 or 25 μM of test compound, and 3.3% DMSO. The final reaction solution for maltose contained 0.69 mg/mL rat intestinal lysate, 10 mM maltose, 50 or 25 μM of test compound, and 3.3% DMSO. The reaction was initiated by the addition of substrate (sucrose or maltose) and allowed to proceed at 37° C. for 20 min to assess rat intestinal alpha-glycosidase activities. The reaction was stopped by addition of 20 μL of 2 M Tris-HCl, pH 7.0. The glucose produced during the reaction was detected using a commercial Amplex Red glucose detection kit from Thermo Fisher. For a full plate, the Amplex Red detection mixture was prepared by mixing 35 μL glucose oxidase, 35 μL horseradish peroxidase and 35 μL Amplex Red into 3395 μL 1× Amplex Red detection buffer. A total of 30 μL of detection mixture was added to each well. Fluorescence was measured in kinetic mode on a Biotek Synergy H4 plate reader at a wavelength of 573 nm for excitation and 610 nm for emission for 15 min and quantified from the data at 10 min. Incubations without added rat intestinal lysate were used to correct for the background amount of glucose present in the samples. Incubations without added test compound were used to define maximal enzyme activity. Percent inhibition of rat intestinal alpha-glucosidases was determined by dividing the amount of glucose detected in the presence of test compound by the amount of glucose detected in the maximal enzyme activity wells. All conditions were analyzed in triplicate. […] The final reaction solutions were the same as described above for the Amplex Red Detection kit. After a 20 min reaction time at 37° C., 100 μL of hexokinase glucose reagent was added to all test wells except for the no enzyme added control wells and no test compound added wells. The plate was incubated for a further 15 min at room temperature and the absorbance was read at 340 nm on a Biotek Synergy H4 plate reader. The percent inhibition of rat intestinal alpha-glucosidases was determined in a similar manner as described above.

For experiment [3], the target named is T1, GBA2. The experiment can be described thus: Inhibition of GBA2 in cell lysate (4-methylumbelliferone glucopyranoside substrate).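 Further: homogenate of stably transfected HEK293T cells pre-treated with a GCase inhibitor, test compound preincubated 5 min at 37 °C, substrate reaction 20 min at 37 °C.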 Conditions: HEK293T-overexpressing GBA2 cellular homogenate, pH 5.5; read-out: GBA2 IC50.

Here are results for 21 compounds from US12528773B2, “Non-lysosomal glucosylceramidase inhibitors and uses thereof” (ALECTOS THERAPEUTICS INC., priority 2020, dated 2026).

Each structure is given as a SMILES string.

T1 sequence (Q9HCG7 whole entry): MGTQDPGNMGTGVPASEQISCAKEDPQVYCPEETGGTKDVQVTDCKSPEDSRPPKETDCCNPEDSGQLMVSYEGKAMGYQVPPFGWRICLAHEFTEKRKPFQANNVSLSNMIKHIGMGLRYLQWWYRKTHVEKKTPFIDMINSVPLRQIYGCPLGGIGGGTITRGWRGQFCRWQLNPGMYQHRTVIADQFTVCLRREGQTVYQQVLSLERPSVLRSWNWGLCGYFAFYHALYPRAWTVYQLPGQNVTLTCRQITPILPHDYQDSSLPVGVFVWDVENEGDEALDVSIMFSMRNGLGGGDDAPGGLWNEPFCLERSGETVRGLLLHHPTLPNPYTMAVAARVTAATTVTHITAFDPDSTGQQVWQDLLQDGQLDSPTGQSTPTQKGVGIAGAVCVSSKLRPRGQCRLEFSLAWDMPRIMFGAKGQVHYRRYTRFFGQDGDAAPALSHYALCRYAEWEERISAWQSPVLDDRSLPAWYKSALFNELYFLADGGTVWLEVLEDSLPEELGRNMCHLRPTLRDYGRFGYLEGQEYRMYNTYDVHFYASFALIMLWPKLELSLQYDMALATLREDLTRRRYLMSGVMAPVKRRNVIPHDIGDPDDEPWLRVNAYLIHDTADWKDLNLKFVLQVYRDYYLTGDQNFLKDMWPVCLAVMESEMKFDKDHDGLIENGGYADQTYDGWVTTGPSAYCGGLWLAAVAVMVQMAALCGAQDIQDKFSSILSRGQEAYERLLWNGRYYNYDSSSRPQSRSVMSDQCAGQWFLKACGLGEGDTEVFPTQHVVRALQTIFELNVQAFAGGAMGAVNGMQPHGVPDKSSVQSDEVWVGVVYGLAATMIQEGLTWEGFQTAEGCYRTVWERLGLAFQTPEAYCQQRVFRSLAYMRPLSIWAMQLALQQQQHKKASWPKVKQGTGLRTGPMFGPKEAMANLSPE

What is called IC50 is the concentration that gives 50% inhibition. Turning to `O[C@H]1[C@H](O)CN(CCc2c(F)cc(N3CCCC3)cc2F)C[C@@H]1O` [Example 10, (3S,4r,5R)-1-(2,6-difluoro-4-(pyrrolidin-1-yl)phenethyl)piperidine-3,4,5-triol], the “binding specificity, IC50(other molecule)/IC50(GBA2) or Ki ratio” value at GBA2 [1] was “enhanced binding specificity”. In experiment [2], the “rat α-glu. (% inhib.)” value is on record as 7%. In addition, the half-maximal inhibitory concentration (IC50) at GBA2 [3] is under 100 nM.

For the compound `Cc1n[nH]c(C)c1-c1cc(F)c(CCN2C[C@@H](O)[C@H](O)[C@@H](O)C2)c(F)c1` [Example 15, (3S,4r,5R)-1-(4-(3,5-dimethyl-1H-pyrazol-4-yl)-2,6-difluorophenethyl)piperidine-3,4,5-triol], the “binding specificity, IC50(other molecule)/IC50(GBA2) or Ki ratio” value at GBA2 [1] was “enhanced binding specificity”. Also, in experiment [2], the “rat α-glu. (% inhib.)” value came to 8%. In addition, the half-inhibitory concentration (IC50) at GBA2 [3] is under 100 nM.

Regarding `O[C@H]1[C@H](O)CN(C[C@@H]2CCCN(c3cnccc3C(F)(F)F)C2)C[C@@H]1O` [Example 38, (3S,4S,5R)-1-(((S)-1-(4-(trifluoromethyl)pyridin-3-yl)piperidin-3-yl)methyl)piperidine-3,4,5-triol], the “binding specificity, IC50(other molecule)/IC50(GBA2) or Ki ratio” value at GBA2 [1] is “enhanced binding specificity”. Further, in experiment [2], the “rat α-glu. (% inhib.)” value is 0%. In addition, the IC50 on GBA2 [3] is under 100 nM.

With `O[C@H]1[C@H](O)CN(CCc2c(F)cc(N3CCCCC3)cc2F)C[C@@H]1O` [Example 11, (3S,4r,5R)-1-(2,6-difluoro-4-(piperidin-1-yl)phenethyl)piperidine-3,4,5-triol], the “binding specificity, IC50(other molecule)/IC50(GBA2) or Ki ratio” value on GBA2 [1] is given as “enhanced binding specificity”. Moreover, the “rat α-glu. (% inhib.)” value in experiment [2] came to 10%. Also, the IC50 on GBA2 [3] was under 100 nM.

For `O[C@H]1[C@H](O)CN(C[C@H]2CCCN(c3ncccc3C(F)(F)F)C2)C[C@@H]1O` [Example 29, (3S,4R,5R)-1-(((R)-1-(3-(trifluoromethyl)pyridin-2-yl)piperidin-3-yl)methyl)piperidine-3,4,5-triol], the “binding specificity, IC50(other molecule)/IC50(GBA2) or Ki ratio” value on GBA2 [1] is recorded as “enhanced binding specificity”. In addition, the “rat α-glu. (% inhib.)” value in experiment [2] is reported as 4%. Besides, at GBA2 [3], the IC50 was under 100 nM.

Regarding `Cc1ccccc1N1CC[C@H](CN2C[C@@H](O)[C@H](O)[C@@H](O)C2)C1` [Example 18, (3S,4R,5R)-1-(((R)-1-(o-tolyl)pyrrolidin-3-yl)methyl)piperidine-3,4,5-triol], the “binding specificity, IC50(other molecule)/IC50(GBA2) or Ki ratio” value at GBA2 [1] is “enhanced binding specificity”. The “rat α-glu. (% inhib.)” value in experiment [2] is 0%. For the same compound, the concentration for half-maximal inhibition (IC50) at GBA2 [3] was under 100 nM.

`O[C@H]1[C@H](O)CN(C[C@H]2CCCN(c3cccnc3C(F)(F)F)C2)C[C@@H]1O` [Example 31, (3S,4R,5R)-1-(((R)-1-(2-(trifluoromethyl)pyridin-3-yl)piperidin-3-yl)methyl)piperidine-3,4,5-triol]: at GBA2 [1], the “binding specificity, IC50(other molecule)/IC50(GBA2) or Ki ratio” value was “enhanced binding specificity”. In addition, the “rat α-glu. (% inhib.)” value in experiment [2] came to 0%. In addition, the IC50 at GBA2 [3] was under 100 nM.

With `O[C@H]1[C@H](O)CN(C[C@H]2CCCN(c3nc4ccccc4s3)C2)C[C@@H]1O` [Example 34, (3S,4R,5R)-1-(((R)-1-(benzo[d]thiazol-2-yl)piperidin-3-yl)methyl)piperidine-3,4,5-triol], the “binding specificity, IC50(other molecule)/IC50(GBA2) or Ki ratio” value at GBA2 [1] was “enhanced binding specificity”. In experiment [2], the “rat α-glu. (% inhib.)” value is on record as 2%. In addition, the half-inhibitory concentration (IC50) on GBA2 [3] was under 100 nM.

As to `O[C@H]1[C@H](O)CN(CCc2c(F)cc(C3CCOCC3)cc2F)C[C@@H]1O` [Example 13, (3S,4r,5R)-1-(2,6-difluoro-4-(tetrahydro-2H-pyran-4-yl)phenethyl)piperidine-3,4,5-triol], the “binding specificity, IC50(other molecule)/IC50(GBA2) or Ki ratio” value at GBA2 [1] is given as “enhanced binding specificity”. For the same compound, in experiment [2], the “rat α-glu. (% inhib.)” value is 5%. At GBA2 [3], the IC50 was under 100 nM.

As to `O[C@H]1[C@H](O)CN(C[C@H]2CC[C@H](C(F)F)CC2)C[C@@H]1O` [Example 185, (3S,4R,5R)-1-(((1r,4R)-4-(difluoromethyl)cyclohexyl)methyl)piperidine-3,4,5-triol], the “rat α-glu. (% inhib.)” value in experiment [2] amounted to 3%. Besides, at GBA2 [3], the IC50 was 100 to 1000 nM.

In the case of `O[C@H]1[C@H](O)CN(C[C@H]2CCN(c3nc4ccccc4o3)C2)C[C@@H]1O` [Example 22, (3S,4R,5R)-1-(((R)-1-(benzo[d]oxazol-2-yl)pyrrolidin-3-yl)methyl)piperidine-3,4,5-triol], the “rat α-glu. (% inhib.)” value in experiment [2] came out at 4%. On GBA2 [3], the 50% inhibitory concentration (IC50) was under 100 nM.

As for `CC(F)(F)[C@H]1CC[C@H](CN2C[C@@H](O)[C@H](O)[C@@H](O)C2)CC1` [Example 188, (3S,4R,5R)-1-(((1r,4R)-4-(1,1-difluoroethyl)cyclohexyl)methyl)piperidine-3,4,5-triol], the “rat α-glu. (% inhib.)” value in experiment [2] is recorded as 10%. Moreover, the IC50 at GBA2 [3] is under 100 nM.

Turning to `O[C@H]1[C@H](O)CN(CC2(F)CCN(c3ccccc3C(F)(F)F)CC2)C[C@@H]1O` [Example 193, (3S,4r,5R)-1-((4-fluoro-1-(2-(trifluoromethyl)phenyl)piperidin-4-yl)methyl)piperidine-3,4,5-triol], the “rat α-glu. (% inhib.)” value in experiment [2] is 2%. The 50% inhibitory concentration (IC50) at GBA2 [3] is under 100 nM.

`O[C@H]1[C@H](O)CN(C[C@@H]2CCCN(c3cccc(C(F)(F)F)n3)C2)C[C@@H]1O` [Example 37, (3S,4S,5R)-1-(((S)-1-(6-(trifluoromethyl)pyridin-2-yl)piperidin-3-yl)methyl)piperidine-3,4,5-triol]: the “rat α-glu. (% inhib.)” value in experiment [2] came to 0%. The IC50 at GBA2 [3] fell in the range of 100 to 1000 nM.

Take `O[C@H]1[C@H](O)CN(C[C@H]2CCN(c3nc4ccccc4s3)C2)C[C@@H]1O` [Example 23, (3S,4R,5R)-1-(((R)-1-(benzo[d]thiazol-2-yl)pyrrolidin-3-yl)methyl)piperidine-3,4,5-triol]: the “rat α-glu. (% inhib.)” value in experiment [2] is listed as 5%. The half-maximal inhibitory concentration (IC50) on GBA2 [3] was under 100 nM.

For the compound `O[C@H]1[C@H](O)CN(C[C@H]2CC[C@H](OC(F)(F)F)CC2)C[C@@H]1O` [Example 189, (3S,4R,5R)-1-(((1r,4R)-4-(trifluoromethoxy)cyclohexyl)methyl)piperidine-3,4,5-triol], the “rat α-glu. (% inhib.)” value in experiment [2] was determined as 3%. In addition, the IC50 on GBA2 [3] was under 100 nM.

In the case of `O[C@H]1[C@H](O)CN(C[C@@H]2CCCN(c3ccncc3C(F)(F)F)C2)C[C@@H]1O` [Example 179, (3S,4S,5R)-1-(((S)-1-(3-(trifluoromethyl)pyridin-4-yl)piperidin-3-yl)methyl)piperidine-3,4,5-triol], the “rat α-glu. (% inhib.)” value in experiment [2] is listed as 6%. Moreover, at GBA2 [3], the concentration for half-maximal inhibition (IC50) lay within 100 to 1000 nM.

For `O[C@H]1[C@H](O)CN(CCC2CCCCC2)C[C@@H]1O` [Example 4, (3S,4r,5R)-1-(2-cyclohexylethyl)piperidine-3,4,5-triol], the “rat α-glu. (% inhib.)” value in experiment [2] is 14%. Also, the IC50 at GBA2 [3] is under 100 nM.

On to `O[C@H]1[C@H](O)CN(C[C@H]2CCN(c3cncc(C(F)(F)F)c3)C2)C[C@@H]1O` [Example 146, (3S,4R,5R)-1-(((R)-1-(5-(trifluoromethyl)pyridin-3-yl)pyrrolidin-3-yl)methyl)piperidine-3,4,5-triol], for which the “rat α-glu. (% inhib.)” value in experiment [2] is 0%. Also, at GBA2 [3], the IC50 is under 100 nM.

As to `O[C@H]1[C@H](O)CN(C[C@@H]2CCN(c3cnccc3C(F)(F)F)C2)C[C@@H]1O` [Example 25, (3S,4S,5R)-1-(((S)-1-(4-(trifluoromethyl)pyridin-3-yl)pyrrolidin-3-yl)methyl)piperidine-3,4,5-triol], the “rat α-glu. (% inhib.)” value in experiment [2] is 1%. Moreover, the concentration for half-maximal inhibition (IC50) on GBA2 [3] was under 100 nM.

Consider `O[C@H]1[C@H](O)CN(C[C@@H]2CCCN(c3nc(C(F)(F)F)cs3)C2)C[C@@H]1O` [Example 39, (3S,4S,5R)-1-(((S)-1-(4-(trifluoromethyl)thiazol-2-yl)piperidin-3-yl)methyl)piperidine-3,4,5-triol], for which the “rat α-glu. (% inhib.)” value in experiment [2] was found to be 0%. The IC50 at GBA2 [3] was 100 to 1000 nM.
